Data reported in US10682371B2, “Small molecule conjugates specifically activated in tumor microenvironment for targeting and use thereof” (priority 2014, dated 2020).
Where two headings read alike, the source gives them in different places.

Legend:
[1] = system: Human breast cancer MDA-MB435 tumor tissue homogenate; format: biochemical; details: for Activation Efficiencies (%): Human breast cancer MDA-MB435 tumor tissue homogenate (30 μg/ml), 1 mg/ml compound
Description: (§1) At 37 °C, sample compounds were added into 100 μg acidized tumor tissue homogenates (pH6.0) in a concentration of 1 mg/ml.
(§2) At 37 °C, sample compounds were added into 100 μg acidized human breast cancer (MDA-MB435) tumor tissue homogenates (pH6.0) in a concentration of 1 mg/ml.
(§3) […], sample compounds were added into 100 μg acidized tumor tissue homogenates (pH6.0) in a concentration of 1 mg/ml.
as §2
(§4) At 37 °C, sample compounds were added into 100 μg acidized tumor tissue homogenates in a concentration of 1 mg/ml.
(§5) In the experiments, at 37 °C, compounds were added into proteases in 100 μg acidized tumor tissue homogenates in a concentration of 1 mg/ml. […] Meanwhile certain compounds produced in the screening were compared and their activation efficiency in same tissue was analyzed.
(§6) At 37° C., compounds were added into proteases in 100 μg acidized tumor tissue homogenates in a concentration of 1 mg/ml.

[2] = system: D121 lung tumor cells; format: in vivo, C57 mice; details: for Treatment effects on C57 mice, in words: compared to the control group and the other treatment groups
In short: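 Endpoint is tumor inhibition rate from tumor size (mm^3) after weekly drug treatment for 4 weeks, begun once s.c. tumors from 10^6 live D121 cells reached 0.3-0.4 cm. Before challenge, C57 mice received three i.p. doses of 5×10^5 irradiated D121 cells, two weeks apart, or saline.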

[3] = system: Human renal cancer OS-RC-2 tumor tissue homogenate; format: biochemical; details: for Activation Efficiencies (%): Human renal cancer OS-RC-2 tumor tissue homogenate (30 μg/ml), 1 mg/ml compound
Description: as §1, §3, §4, §5, §6

[4] = system: Human non-small cell lung cancer A549 tumor tissue homogenate; format: biochemical; details: for Activation Efficiencies (%): Human non-small cell lung cancer A549 tumor tissue homogenate (30 μg/ml), 1 mg/ml compound
Description: as §1, §3, §4, §5, §6

[5] = system: Human colon cancer HT-29 tumor tissue homogenate; format: biochemical
Description: as §1, §3, §4, §5, §6

[6] = system: Human ovarian cancer SK-OV-3 tumor tissue homogenate; format: biochemical; details: for Activation Efficiencies (%): Human ovarian cancer SK-OV-3 tumor tissue homogenate (30 μg/ml), 1 mg/ml compound
Description: as §1, §3, §4, §5, §6

[7] = system: Human liver cancer Hepg2 tumor tissue homogenate; format: biochemical; details: for Activation Efficiencies (%): Human liver cancer Hepg2 tumor tissue homogenate (30 μg/ml), 1 mg/ml compound
Description: as §1, §3, §4, §5, §6

[8] = system: Human prostate cancer PC-3 tumor tissue homogenate; format: biochemical; details: for Activation Efficiencies (%): Human prostate cancer PC-3 tumor tissue homogenate (30 μg/ml), 1 mg/ml compound
Description: as §1, §3, §4, §5, §6

[9] = system: Human chronic leukemia K562 tumor tissue homogenate; format: biochemical; details: Human chronic leukemia K562 tumor tissue homogenate (30 μg/ml); 1 mg/ml compound
Description: as §1, §3, §4, §5, §6

[10] = system: Human pancreatic cancer Panc-1 tumor tissue homogenate; format: biochemical; details: for Activation Efficiencies (%): Human pancreatic cancer Panc-1 tumor tissue homogenate (30 μg/ml), 1 mg/ml compound
Description: as §1, §3, §4, §5, §6

[11] = system: tumor CD8+ T cells; format: in vivo, C57 mice; details: ratio of CD8 positive cells in CD45 positive cells of tumor
In short: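 Flow cytometric ratio of CD8⁺ to CD45⁺ cells in dissociated tumour. Cell suspensions were labelled with CD45-PE and CD8-FITC for 1 h at room temperature, then washed twice in phosphate buffer with 1% fetal bovine serum.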

[12] = D121 immunized C57 mice, 13.2 μmol/kg weekly, PDL1 antibody 5 μg/kg where combined, Day 18
[13] = D121 immunized C57 mice, 13.2 μmol/kg
[14] = Day 18, immunized C57 mice, drugs 13.2 μmol/kg, PDL1 antibody 5 μg/kg, weekly for 4 weeks
[15] = flow cytometry, drugs 13.2 μmol/kg, PDL1 antibody 5 μg/kg

## 4-N—(N—(N—(N-(6-maleimido caproyl)-L-alanyl)-L-alanyl)-L-asparaginyl)-amino benzyl alcohol-MMAE-carbamate [Compound S6]
[1]
  Activation Efficiencies (%): 25.6%
[2]; [12]
  Inhibitory rate on tumor Day 18: 29.47
  Size of tumor (mm^3) Day 18: 957.46 ± 257.87 mm^3
[2]
  Treatment effects on C57 mice, in words: improved treatment effect as compared to the daunorubicin group
[3]
  Activation Efficiencies (%): 20.4%
[4]
  Activation Efficiencies (%): 27.4%
[5]; Human colon cancer HT-29 tumor tissue homogenate (30 μg/ml), 1 mg/ml compound
  Activation Efficiencies (%): 22.4%
[6]
  Activation Efficiencies (%): 23.5%
[7]
  Activation Efficiencies (%): 26.7%
[8]
  Activation Efficiencies (%): 13.2%
[9]
  Activation Efficiencies (%): 28.4%
[10]
  Activation Efficiencies (%): 17.3%
[11]; [13]
  CD8: D45 (%): 13.0%

## COCCOCCOCCOCCOCCOCC(=O)N[C@H](C)C(=O)N[C@H](C)C(=O)N[C@H](CC(N)=O)C(=O)Nc1ccc(COC(=O)N2[C@H]3[C@@H]2CN2C4=C(C(=O)C(N)=C(C)C4=O)[C@H](COC(N)=O)[C@]32OC)cc1 [Compound E2]
[1]; Human breast cancer MDA-MB435, 37° C., 1 mg/ml
  Activation ratio (%) in homogenates from different tumor tissues: 90.6%
[2]; [14]
  Size of tumor (mm^3) Day 18: 331.57 ± 124.45 mm^3
  inhibitory rate on tumor % Day 18: 83.87%
[2]
  Treatment effects on C57 mice, in words: greatly improved
[3]; Human renal cancer OS-RC-2, 37° C., 1 mg/ml
  Activation ratio (%) in homogenates from different tumor tissues: 94.5%
[4]; Human non-small cell lung cancer A549, 37° C., 1 mg/ml
  Activation ratio (%) in homogenates from different tumor tissues: 96.4%
[5]; Human colon cancer HT-29, 37° C., 1 mg/ml
  Activation ratio (%) in homogenates from different tumor tissues: 96.1%
[6]; Human ovarian cancer SK-OV-3, 37° C., 1 mg/ml
  Activation ratio (%) in homogenates from different tumor tissues: 97.6%
[7]; Human liver cancer Hepg2, 37° C., 1 mg/ml
  Activation ratio (%) in homogenates from different tumor tissues: 94.8%
[8]; Human prostate cancer PC-3, 37° C., 1 mg/ml
  Activation ratio (%) in homogenates from different tumor tissues: 86.4%
[10]; Human pancreatic cancer Panc-1, 37° C., 1 mg/ml
  Activation ratio (%) in homogenates from different tumor tissues: 84.6%
[11]; [15]
  CD8: CD45 (%): 19.7%

## COc1cccc2c1C(=O)c1c(O)c3c(c(O)c1C2=O)C[C@@](O)(C(C)=O)C[C@@H]3O[C@H]1C[C@H](NC(=O)OCc2ccc(NC(=O)[C@H](CC(N)=O)NC(=O)[C@H](C)NC(=O)[C@H](C)NC(=O)CCCCCN3C(=O)C=CC3=O)cc2)[C@H](O)[C@H](C)O1 [Compound S5, 4-N—(N—(N—(N-(6-maleimidocaproyl)-L-alanyl)-L-alanyl)-L-asparaginyl)-amino benzyl alcohol-daunorubicin-carbamate]
[1]
  Activation Efficiencies (%): 96.7%
[2]; [12]
  Size of tumor (mm^3) Day 18: 379.75 ± 125.64 mm^3
[2]
  Treatment effects on C57 mice, in words: greatly improved
[3]
  Activation Efficiencies (%): 98.3%
[4]
  Activation Efficiencies (%): 96.7%
[6]
  Activation Efficiencies (%): 97.4%
[7]
  Activation Efficiencies (%): 67.3%
[8]
  Activation Efficiencies (%): 97.3%
[9]
  Activation Efficiencies (%): 73.5%
[10]
  Activation Efficiencies (%): 97.4%
[11]; [13]
  CD8: CD45 (%): 17.4%

## CO[C@@]12[C@H](COC(N)=O)C3=C(C(=O)C(C)=C(N)C3=O)N1C[C@@H]1N[C@@H]12 [mitomycin, reference compound]
[2]; [14]
  Size of tumor (mm^3) Day 18: 1210.28 ± 368.45 mm^3
  inhibitory rate on tumor % Day 18: 28.62%
[11]; [15]
  CD8: CD45 (%): 6.7%
